What was measured:
[1] = Biodistribution in orally dosed human feces assessed as 9-hydroxy muraglitazar level by LC/MS analysis; assay type: ADME, organism-based; details: in vivo, po
[2] = Metabolic stability in CD1 mouse hepatocytes assessed as 12,17-dihydroxy muraglitazar level by LC/MS analysis relative to control; assay type: ADME, cell-based, Hepatocyte
Rattus norvegicus [3] = assay: Biodistribution in orally dosed Sprague-Dawley rat feces assessed as 12-hydroxy-O-demethyl muraglitazar level by LC/MS analysis; assay type: ADME, organism-based; details: in vivo, po
[4] = Metabolic stability in CD1 mouse hepatocytes assessed as 12-hydroxy muraglitazar level by LC/MS analysis relative to control; assay type: ADME, cell-based, Hepatocyte
Plasma [5] = assay: Biodistribution in orally dosed Beagle dog plasma assessed as 12-dihydroxy muraglitazar level after 1 hr by LC/MS analysis; assay type: ADME, organism-based, Canis lupus familiaris; details: in vivo, po
Rattus norvegicus [6] = assay: Biodistribution in orally dosed Sprague-Dawley rat urine assessed as O-dealkyl-O-demethyl muraglitazar level by LC/MS analysis; assay type: ADME, organism-based; details: in vivo, po
Plasma [7] = assay: Biodistribution in orally dosed human plasma assessed as O-Dealkyl muraglitazar level after 4 hrs by LC/MS analysis; assay type: ADME, organism-based; details: in vivo, po
[8] = Fecal excretion rate in orally dosed Beagle dog within 48 hrs; assay type: ADME, organism-based, Canis lupus familiaris; details: faeces, po, read-out: Activity
Plasma [9] = assay: Biodistribution in orally dosed human plasma assessed as O-Dealkyl muraglitazar level after 12 hrs by LC/MS analysis; assay type: ADME, organism-based; details: in vivo, po
[10] = Biodistribution in orally dosed human feces assessed as 8,12-dihydroxy muraglitazar level by LC/MS analysis; assay type: ADME, organism-based; details: in vivo, po
Plasma [11] = assay: Biodistribution in orally dosed cynomolgus monkey plasma assessed as 17-dihydroxy muraglitazar level after 12 hrs by LC/MS analysis; assay type: ADME, organism-based, Macaca fascicularis; details: in vivo, po
[12] = Drug concentration in human feces assessed as recovery of radioactive dose at 10 mg, po after 240 hrs; assay type: ADME, organism-based; details: in vivo
Hepatocyte [13] = assay: Metabolic stability in Sprague-Dawley rat hepatocytes assessed as 9-hydroxy muraglitazar level by LC/MS analysis relative to control; assay type: ADME, cell-based
[14] = Biodistribution in orally dosed human urine assessed as muraglitazar glucuronide level by LC/MS analysis; assay type: ADME, organism-based; details: in vivo, po
Plasma [15] = assay: Biodistribution in orally dosed human plasma assessed as 12-dihydroxy muraglitazar level after 12 hrs by LC/MS analysis; assay type: ADME, organism-based; details: in vivo, po
Plasma [16] = assay: Biodistribution in orally dosed cynomolgus monkey plasma assessed as […] muraglitazar level after 4 hrs by LC/MS analysis; assay type: ADME, organism-based, Macaca fascicularis; details: in vivo, po
[17] = Biodistribution in orally dosed cynomolgus monkey urine assessed as O-dealkyl muraglitazar level by LC/MS analysis; assay type: ADME, organism-based, Macaca fascicularis; details: in vivo, po
[18] = Metabolic stability in CD1 mouse hepatocytes assessed as hydroxyl muraglitazar glucuronide level by LC/MS analysis relative to control; assay type: ADME, cell-based, Hepatocyte
Hepatocyte [19] = assay: Metabolic stability in human hepatocytes assessed as O-demethyl muraglitazar glucuronide level by LC/MS analysis relative to control; assay type: ADME, cell-based
Rattus norvegicus [20] = assay: Biodistribution in orally dosed Sprague-Dawley rat feces assessed as 8-hydroxy muraglitazar level by LC/MS analysis; assay type: ADME, organism-based; details: in vivo, po
[21] = Tmax in Beagle dog at 2 mg/kg, po after 4 hrs; assay type: ADME, organism-based, Canis lupus familiaris; design: dose 2 mg/kg, route oral; details: in vivo
[22] = Half life in cynomolgus monkey at 1.9 mg/kg, po after 24 hrs; assay type: ADME, organism-based, Macaca fascicularis; design: dose 1.9 mg/kg, route oral; details: in vivo
[23] = Drug concentration in bile duct-cannulated cynomolgus monkey bile assessed as recovery of radioactive dose at 5 mg/kg, po after 48 hrs; assay type: ADME, organism-based, Macaca fascicularis; design: dose 5 mg/kg, route oral; details: in vivo
Hepatocyte [24] = assay: Metabolic stability in human hepatocytes assessed as O-Dealkyl muraglitazar level by LC/MS analysis relative to control; assay type: ADME, cell-based
[25] = Metabolic stability in CD1 mouse hepatocytes assessed as 9-hydroxy muraglitazar level by LC/MS analysis relative to control; assay type: ADME, cell-based, Hepatocyte
[26] = Biodistribution in orally dosed human feces assessed as 8-hydroxy-O-demethyl muraglitazar level by LC/MS analysis; assay type: ADME, organism-based; details: in vivo, po
[27] = Biodistribution in orally dosed cynomolgus monkey urine assessed as muraglitazar glucuronide level by LC/MS analysis; assay type: ADME, organism-based, Macaca fascicularis; details: in vivo, po
Plasma [28] = assay: Biodistribution in orally dosed cynomolgus monkey plasma assessed as 12,17-dihydroxy muraglitazar level after 12 hrs by LC/MS analysis; assay type: ADME, organism-based, Macaca fascicularis; details: in vivo, po
Hepatocyte [29] = assay: Metabolic stability in Sprague-Dawley rat hepatocytes assessed as 12-hydroxy-O-demethyl muraglitazar level by LC/MS analysis relative to control; assay type: ADME, cell-based
Plasma [30] = assay: Biodistribution in orally dosed Sprague-Dawley rat plasma assessed as 8-hydroxy-O-demethyl muraglitazar level after 12 hrs by LC/MS analysis; assay type: ADME, organism-based; details: in vivo, po
Plasma [31] = assay: Biodistribution in orally dosed cynomolgus monkey plasma assessed as O-Dealkyl muraglitazar level after 1 hr by LC/MS analysis; assay type: ADME, organism-based, Macaca fascicularis; details: in vivo, po
Hepatocyte [32] = assay: Metabolic stability in Sprague-Dawley rat hepatocytes assessed as O-demethyl muraglitazar glucuronide level by LC/MS analysis relative to control; assay type: ADME, cell-based
[33] = Metabolic stability in CD1 mouse hepatocytes assessed as di-oxygenated muraglitazar level by LC/MS analysis relative to control; assay type: ADME, cell-based, Hepatocyte
[34] = Biodistribution in orally dosed cynomolgus monkey feces assessed as O-demethyl muraglitazar level by LC/MS analysis; assay type: ADME, organism-based, Macaca fascicularis; details: in vivo, po
[35] = Biodistribution in orally dosed Beagle dog feces assessed as acetylimide derivative of muraglitazar level by LC/MS analysis; assay type: ADME, organism-based, Canis lupus familiaris; details: in vivo, po
Hepatocyte [36] = assay: Metabolic stability in Sprague-Dawley rat hepatocytes assessed as hydroxyl muraglitazar glucuronide level by LC/MS analysis relative to control; assay type: ADME, cell-based
Homo sapiens = assay: AUC (0 to T) in human at 10 mg, po after 72 hrs; assay type: ADME, organism-based, Plasma; design: dose 10 mg, time < 72 hr, route oral; details: in vivo
Hepatocyte [37] = assay: Metabolic stability in Sprague-Dawley rat hepatocytes assessed as di-oxygenated muraglitazar level by LC/MS analysis relative to control; assay type: ADME, cell-based
[38] = Biodistribution in orally dosed cynomolgus monkey feces assessed as 12,17-dihydroxy muraglitazar level by LC/MS analysis; assay type: ADME, organism-based, Macaca fascicularis; details: in vivo, po
Plasma [39] = assay: Biodistribution in orally dosed Sprague-Dawley rat plasma assessed as O-demethyl muraglitazar glucuronide level after 12 hrs by LC/MS analysis; assay type: ADME, organism-based; details: in vivo, po
Hepatocyte [40] = assay: Metabolic stability in Sprague-Dawley rat hepatocytes assessed as 9-hydroxy-O-demethyl muraglitazar level by LC/MS analysis relative to control; assay type: ADME, cell-based
Hepatocyte [41] = assay: Metabolic stability in human hepatocytes assessed as 8,12-dihydroxy muraglitazar level by LC/MS analysis relative to control; assay type: ADME, cell-based
Plasma [42] = assay: Biodistribution in orally dosed Sprague-Dawley rat plasma assessed as 17-hydroxy-O-demethyl muraglitazar level after 12 hrs by LC/MS analysis; assay type: ADME, organism-based; details: in vivo, po
Rattus norvegicus [43] = assay: AUC (0 to T) in Sprague-Dawley rat at 10 mg/kg, po after 24 hrs; assay type: ADME, organism-based, Plasma; design: time < 24 hr, dose 10 mg/kg, route oral; details: in vivo
[44] = Drug concentration in human bile at 20 mg/kg, po after 48 hrs; assay type: ADME, organism-based; design: dose 20 mg/kg, route oral; details: in vivo
[45] = Biodistribution in orally dosed cynomolgus monkey urine assessed as 8-hydroxy-O-demethyl muraglitazar level by LC/MS analysis; assay type: ADME, organism-based, Macaca fascicularis; details: in vivo, po
Plasma [46] = assay: Biodistribution in orally dosed Sprague-Dawley rat plasma assessed as O-demethyl muraglitazar level after 12 hrs by LC/MS analysis; assay type: ADME, organism-based; details: in vivo, po
[47] = Biodistribution in orally dosed cynomolgus monkey urine assessed as 8-hydroxy muraglitazar level by LC/MS analysis; assay type: ADME, organism-based, Macaca fascicularis; details: in vivo, po
[48] = Biodistribution in orally dosed human urine assessed as 12-hydroxy muraglitazar level by LC/MS analysis; assay type: ADME, organism-based; details: in vivo, po
[49] = Fecal excretion rate in orally dosed Beagle dog within 24 hrs; assay type: ADME, organism-based, Canis lupus familiaris; details: faeces, po, read-out: Activity
Canis familiaris = assay: Cmax in Beagle dog at 2 mg/kg, po after 4 hrs; assay type: ADME, organism-based, Canis lupus familiaris; design: dose 2 mg/kg, route oral; details: in vivo
Plasma [50] = assay: Biodistribution in orally dosed human plasma assessed as muraglitazar glucuronide level after 1 hr by LC/MS analysis; assay type: ADME, organism-based; details: in vivo, po
Plasma [51] = assay: Biodistribution in orally dosed cynomolgus monkey plasma assessed as muraglitazar glucuronide level after 12 hrs by LC/MS analysis; assay type: ADME, organism-based, Macaca fascicularis; details: in vivo, po

Question: With COc1ccc(OC(=O)N(CC(=O)O)Cc2ccc(OCCc3nc(-c4ccccc4)oc3C)cc2)cc1 [MURAGLITAZAR] as the compound, how does the Drug uptake [1] read?
Answer: 1.6%

Question: What about the Drug uptake [2] of the same compound?
Answer: 0.8%

Question: What about the Drug uptake (Rattus norvegicus [3]) of the same compound?
Answer: 2.63%

Question: And the Drug uptake [4]?
Answer: 11%

Question: And the Drug uptake (Plasma [5])?
Answer: 1%

Question: And the Drug uptake (Rattus norvegicus [6])?
Answer: 0.21%

Question: And the Drug uptake (Plasma [7])?
Answer: < 0.05%

Question: What about the dose excreted at 48 h [8] of the same compound?
Answer: 95%

Question: And the Drug uptake (Plasma [9])?
Answer: 0.2%

Question: And the Drug uptake [10]?
Answer: 1.36%

Question: And the Drug uptake (Plasma [11])?
Answer: 21.4%

Question: What about the Drug uptake [12] of the same compound?
Answer: 61.6%

Question: What about the Drug uptake (Hepatocyte [13]) of the same compound?
Answer: 0.3%

Question: What about the Drug uptake [14] of the same compound?
Answer: 1%

Question: What about the Drug uptake (Plasma [15]) of the same compound?
Answer: 1%

Question: And the Drug uptake (Plasma [16])?
Answer: 1.3%

Question: What about the Drug uptake [17] of the same compound?
Answer: 1.04%

Question: What about the Drug uptake [18] of the same compound?
Answer: 2.7%

Question: What about the Drug uptake (Hepatocyte [19]) of the same compound?
Answer: < 0.2%

Question: And the Drug uptake (Rattus norvegicus [20])?
Answer: 4.39%

Question: And the Tmax [21]?
Answer: 1 h

Question: And the half-life [22]?
Answer: 23.5 h

Question: And the Drug uptake [23]?
Answer: 35.7%

Question: And the Drug uptake (Hepatocyte [24])?
Answer: 5.7%

Question: And the Drug uptake [25]?
Answer: 1.3%

Question: And the Drug uptake [26]?
Answer: 0.56%

Question: What about the Drug uptake [27] of the same compound?
Answer: 0.02%

Question: And the Drug uptake (Plasma [28])?
Answer: 1%

Question: And the Drug uptake (Hepatocyte [29])?
Answer: < 0.2%

Question: What about the Drug uptake (Plasma [30]) of the same compound?
Answer: 0.05%

Question: What about the Drug uptake (Plasma [31]) of the same compound?
Answer: 0.3%

Question: What about the Drug uptake (Hepatocyte [32]) of the same compound?
Answer: < 0.2%

Question: What about the Drug uptake [33] of the same compound?
Answer: 1.4%

Question: And the Drug uptake [34]?
Answer: 7.24%

Question: What about the Drug uptake [35] of the same compound?
Answer: 0.18%

Question: What about the Drug uptake (Hepatocyte [36]) of the same compound?
Answer: 0.5%

Question: And the AUC (Homo sapiens)?
Answer: 9 ugequiv.h/ml

Question: And the Drug uptake (Hepatocyte [37])?
Answer: 7.5%

Question: And the Drug uptake [38]?
Answer: 6.43%

Question: And the Drug uptake (Plasma [39])?
Answer: 0.4%

Question: And the Drug uptake (Hepatocyte [40])?
Answer: < 0.2%

Question: What about the Drug uptake (Hepatocyte [41]) of the same compound?
Answer: < 0.2%

Question: What about the Drug uptake (Plasma [42]) of the same compound?
Answer: < 0.05%

Question: And the AUC (Rattus norvegicus [43])?
Answer: 105 ugequiv.h/ml

Question: And the Drug uptake [44]?
Answer: 0.068 mgequiv/ml

Question: And the Drug uptake [45]?
Answer: 0.08%

Question: And the Drug uptake (Plasma [46])?
Answer: 3.5%

Question: What about the Drug uptake [47] of the same compound?
Answer: 0.12%

Question: And the Drug uptake [48]?
Answer: 0.03%

Question: And the dose excreted at 24 h [49]?
Answer: 85%

Question: And the Cmax (Canis familiaris)?
Answer: 1 ugequiv/ml

Question: What about the Drug uptake (Plasma [50]) of the same compound?
Answer: 2.5%

Question: What about the Drug uptake (Plasma [51]) of the same compound?
Answer: 0.1%

From ChEMBL document CHEMBL1147043, “Comparative metabolism of radiolabeled muraglitazar in animals and humans by quantitative and qualitative metabolite profiling” (Drug Metab Dispos, 2007)
